According to ChEMBL document CHEMBL1145224, “Novel 1beta-methylcarbapenems with isoxazoloethenyl moieties containing carboxylic acid sodium salt” (Bioorg Med Chem Lett, 2005):
≈ marks a conversion by molar mass, not a printed value.

Assays:
Pseudomonas aeruginosa [1] = assay: Minimum inhibitory concentration against was determined against Pseudomonas aeruginosa 9027 strain; format: functional
Pseudomonas aeruginosa [2] = assay: Minimum inhibitory concentration against Pseudomonas aeruginosa 1771M strain; format: functional
Klebsiella aerogenes = assay: Minimum inhibitory concentration against Klebsiella aerogenes 1522E strain; format: functional
Staphylococcus aureus [3] = assay: Minimum inhibitory concentration against […] 503 strain; format: functional
Escherichia coli [4] = assay: Minimum inhibitory concentration against Escherichia coli 1507 E strain; format: functional
Pseudomonas aeruginosa [5] = assay: Minimum inhibitory concentration against Pseudomonas aeruginosa 1592E strain; format: functional
Salmonella typhimurium = assay: Minimum inhibitory concentration against Salmonella Typhimurium; format: functional, Salmonella enterica subsp. enterica serovar Typhimurium; conditions: Salmonella enterica
Streptococcus pyogenes = assay: Minimum inhibitory concentration against Streptococcus pyogenes 308A strain; format: functional
Staphylococcus aureus [6] = assay: Minimum inhibitory concentration against […] 285 strain; format: functional
Enterobacter cloacae = assay: Minimum inhibitory concentration against Enterobacter cloacae 1321E strain; format: functional
Escherichia coli [7] = assay: Minimum inhibitory concentration against Escherichia coli 078 strain; format: functional
Streptococcus pneumoniae [8] = assay: Minimum inhibitory concentration against Streptococcus pneumoniae (n=22); (Range = 0.008-0.25); format: functional
[9] = Area under concentration time at a single intravenous administration of 20 mg/kg in rat; format: ADME, organism-based; parameters: dose 20 mg/kg, route intravenous; conditions: in vivo
[10] = Half life at a single intravenous administration of 20 mg/kg in rat; format: ADME, organism-based; parameters: dose 20 mg/kg, route intravenous; conditions: in vivo
[11] = Half life at a single intravenous administration of 5 mg/kg in dog; format: ADME, organism-based, Canis lupus familiaris; parameters: dose 5 mg/kg, route intravenous; conditions: in vivo
Klebsiella pneumoniae [12] = assay: Minimum inhibitory concentration against Klebsiella pneumoniae (n=30); (Range = 0.015-0.25); format: functional
[13] = Clearance value at a single intravenous administration of 20 mg/kg in rat; format: ADME, organism-based; parameters: dose 20 mg/kg, route intravenous; conditions: in vivo
[14] = Area under concentration time at a single intravenous administration of 5 mg/kg in dog; format: ADME, organism-based, Canis lupus familiaris; parameters: dose 5 mg/kg, route intravenous; conditions: in vivo
[15] = Clearance value at a single intravenous administration of 5 mg/kg in dog; format: ADME, organism-based, Canis lupus familiaris; parameters: dose 5 mg/kg, route intravenous; conditions: in vivo
Moraxella catarrhalis [16] = assay: Minimum inhibitory concentration against Moraxella catarrhalis (n=22); (Range=0.015-0.06); format: functional
Pseudomonas aeruginosa [17] = assay: Minimum inhibitory concentration against Pseudomonas aeruginosa (n=60); (Range=0.06-128); format: functional
Streptococcus pneumoniae [18] = assay: Minimum inhibitory concentration of the compound was determined against Streptococcus pneumoniae (n=22);(Range = 0.008-0.25); format: functional
Moraxella catarrhalis [19] = assay: Minimum inhibitory concentration against Moraxella catarrhalis (n=22); (Range=0.008-0.12); format: functional
Klebsiella pneumoniae [20] = assay: Minimum inhibitory concentration against Klebsiella pneumoniae (n=30); (Range=0.008-1); format: functional
Streptococcus pneumoniae [21] = assay: Minimum inhibitory concentration against Streptococcus pneumoniae (n=22); (Range=0.008-1); format: functional
Klebsiella pneumoniae [22] = assay: Minimum inhibitory concentration against Klebsiella pneumoniae (n=30); (Range = […]); format: functional
Moraxella catarrhalis [23] = assay: Minimum inhibitory concentration against Moraxella catarrhalis (n=22); (Range = 0.008-0.12); format: functional
Pseudomonas aeruginosa [24] = assay: Minimum inhibitory concentration against Pseudomonas aeruginosa (n=60); (Range=1-128); format: functional
Pseudomonas aeruginosa [25] = assay: Minimum inhibitory concentration against Pseudomonas aeruginosa (n=60); (Range=0.5-128); format: functional
Streptococcus pneumoniae [26] = assay: Minimum inhibitory concentration against Streptococcus pneumoniae (n=22); (Range = 0.008-0.5); format: functional
Klebsiella pneumoniae [27] = assay: Minimum inhibitory concentration against Klebsiella pneumoniae (n=30); (Range=[…]); format: functional
Pseudomonas aeruginosa [28] = assay: microbe, parasite or virus in culture
Klebsiella pneumoniae [29] = assay: Minimum inhibitory concentration against Klebsiella pneumoniae (n=30); (Range=0.06-1); format: functional
Moraxella catarrhalis [30] = assay: microbe, parasite or virus in culture
Moraxella catarrhalis [31] = assay: Minimum inhibitory concentration against Moraxella catarrhalis (n=22); (Range=0.008-0.25); format: functional
Pseudomonas aeruginosa [32] = assay: Minimum inhibitory concentration against Pseudomonas aeruginosa (n=60); (Range=0.025-128); format: functional
Klebsiella pneumoniae [33] = assay: Minimum inhibitory concentration against Klebsiella pneumoniae (n=30); (Range = 0.03-0.25); format: functional
Moraxella catarrhalis [34] = assay: Minimum inhibitory concentration against Moraxella catarrhalis (n=22); (Range=0.008-0.6); format: functional
Moraxella catarrhalis [35] = assay: Minimum inhibitory concentration against Moraxella catarrhalis (n=22); (Range=0.008-0.06); format: functional
Moraxella catarrhalis [36] = assay: Minimum inhibitory concentration against Moraxella catarrhalis (n=22); (Range=0.008-0.03); format: functional
Klebsiella pneumoniae [37] = assay: Minimum inhibitory concentration against Klebsiella pneumoniae (n=30); (Range = 0.015-0.06); format: functional

MIC (Pseudomonas aeruginosa [1]) [µg/mL]	MIC (Pseudomonas aeruginosa [2]) [µg/mL]	MIC (Klebsiella aerogenes) [µg/mL]	MIC (Staphylococcus aureus [3]) [µg/mL]	MIC (Escherichia coli [4]) [µg/mL]	MIC (Pseudomonas aeruginosa [5]) [µg/mL]	MIC (Salmonella typhimurium) [µg/mL]	MIC (Streptococcus pyogenes) [ng/mL]	MIC (Staphylococcus aureus [6]) [µg/mL]	MIC (Enterobacter cloacae) [µg/mL]	MIC (Escherichia coli [7]) [µg/mL]	MIC90 (Streptococcus pneumoniae [8]) [µg/mL]	AUC [9] [µg·min/mL]	half-life [10] [min]	half-life [11] [min]	clearance [13] [mL/min/kg]	AUC [14] [µg·min/mL]	clearance [15] [mL/min/kg]	SMILES	MIC50 (Pseudomonas aeruginosa [17]) [µg/mL]	MIC90 (Pseudomonas aeruginosa [17]) [µg/mL]	other results
0.195	1.56	0.049	0.098	0.025	0.391	0.049	7	0.195	0.025	0.025								C[C@@H](O)[C@H]1C(=O)N2C(C(=O)O)=C(S[C@@H]3CN[C@H](/C=C/c4cc(C(=O)[O-])on4)C3)[C@H](C)[C@H]12.[Na+]			
0.195	0.049	0.049	0.195	0.025	0.195	0.049	49	0.195	0.025	0.013	0.12	1520	12	41	13	861	6	C[C@@H](O)[C@H]1C(=O)N2C(C(=O)O)=C(S[C@@H]3CN[C@H](/C=C/c4cc(C(=O)[O-])no4)C3)[C@H](C)[C@H]12.[Na+]	4	64	MIC50 (Klebsiella pneumoniae [12]): 0.03 µg/mL; MIC90 (Klebsiella pneumoniae [12]): 0.12 µg/mL; MIC50 (Moraxella catarrhalis [16]): 0.03 µg/mL; MIC90 (Moraxella catarrhalis [16]): 0.06 µg/mL; MIC50 (Streptococcus pneumoniae [18]): 8 ng/mL
																		C[C@@H](O)[C@H]1C(=O)N2C(C(=O)O)=C(S[C@@H]3CN[C@H](C(=O)Nc4cccc(C(=O)O)c4)C3)[C@H](C)[C@H]12 [ERTAPENEM]			MIC90 (Moraxella catarrhalis [19]): 0.03 µg/mL (≈ 0.0631 µM); MIC50 (Klebsiella pneumoniae [20]): 0.03 µg/mL (≈ 0.0631 µM); MIC50 (Streptococcus pneumoniae [21]): 0.5 µg/mL (≈ 1.05 µM); MIC90 (Streptococcus pneumoniae [21]): 1 µg/mL (≈ 2.1 µM); MIC90 (Klebsiella pneumoniae [22]): 0.5 µg/mL (≈ 1.05 µM); MIC50 (Moraxella catarrhalis [23]): 0.015 µg/mL (≈ 0.0315 µM); MIC50 (Pseudomonas aeruginosa [24]): 32 µg/mL (≈ 67.3 µM); MIC90 (Pseudomonas aeruginosa [24]): 128 µg/mL (≈ 269 µM)
0.195 (≈ 0.481 µM)	0.098 (≈ 0.242 µM)	0.049 (≈ 0.121 µM)	0.098 (≈ 0.242 µM)	0.025 (≈ 0.0617 µM)	0.195 (≈ 0.481 µM)	0.049 (≈ 0.121 µM)	4 (≈ 0.00986 µM)	0.049 (≈ 0.121 µM)	0.025 (≈ 0.0617 µM)	0.025 (≈ 0.0617 µM)	0.12 (≈ 0.296 µM)	1130	16	23	18	186	27	CC1C(S[C@@H]2CN[C@H](/C=C/c3ccno3)C2)=C(C(=O)O)N2C(=O)[C@H]([C@@H](C)O)[C@@H]12 (single isomer, unassigned)			MIC50 (Streptococcus pneumoniae [8]): 0.03 µg/mL (≈ 0.074 µM); MIC50 (Pseudomonas aeruginosa [32]): 8 µg/mL (≈ 19.7 µM); MIC90 (Pseudomonas aeruginosa [32]): 64 µg/mL (≈ 158 µM); MIC50 (Klebsiella pneumoniae [33]): 0.06 µg/mL (≈ 0.148 µM); MIC90 (Klebsiella pneumoniae [33]): 0.12 µg/mL (≈ 0.296 µM); MIC90 (Moraxella catarrhalis [34]): 0.03 µg/mL (≈ 0.074 µM); MIC50 (Moraxella catarrhalis [35]): 0.015 µg/mL (≈ 0.037 µM)

SMILES	MIC (Pseudomonas aeruginosa [1]) [µg/mL]	MIC (Pseudomonas aeruginosa [2]) [µg/mL]	MIC (Klebsiella aerogenes) [µg/mL]	MIC (Staphylococcus aureus [3]) [µg/mL]	MIC (Escherichia coli [4]) [µg/mL]	MIC (Pseudomonas aeruginosa [5]) [µg/mL]	MIC (Salmonella typhimurium) [µg/mL]	MIC (Streptococcus pyogenes) [ng/mL]	MIC (Staphylococcus aureus [6]) [µg/mL]	MIC (Enterobacter cloacae) [µg/mL]	MIC (Escherichia coli [7]) [µg/mL]	MIC90 (Streptococcus pneumoniae [8]) [µg/mL]	AUC [9] [µg·min/mL]	half-life [10] [min]	half-life [11] [min]	clearance [13] [mL/min/kg]	AUC [14] [µg·min/mL]	clearance [15] [mL/min/kg]	MIC50 (Pseudomonas aeruginosa [17]) [µg/mL]	MIC90 (Pseudomonas aeruginosa [17]) [µg/mL]	other results
C[C@@H](O)[C@H]1C(=O)N2C(C(=O)O)=C(SCCNC=N)C[C@H]12 [IMIPENEM ANHYDROUS]	0.391 (≈ 1.31 µM)	0.195 (≈ 0.651 µM)	0.195 (≈ 0.651 µM)	0.098 (≈ 0.327 µM)	0.098 (≈ 0.327 µM)	0.781 (≈ 2.61 µM)	0.781 (≈ 2.61 µM)	4 (≈ 0.0134 µM)	0.013 (≈ 0.0434 µM)	0.098 (≈ 0.327 µM)	0.098 (≈ 0.327 µM)										MIC50 (Pseudomonas aeruginosa [25]): 2 µg/mL (≈ 6.68 µM); MIC50 (Streptococcus pneumoniae [26]): 0.12 µg/mL (≈ 0.401 µM); MIC90 (Streptococcus pneumoniae [26]): 0.25 µg/mL (≈ 0.835 µM); MIC90 (Klebsiella pneumoniae [27]): 0.5 µg/mL (≈ 1.67 µM); MIC90 (Pseudomonas aeruginosa [28]): 16 µg/mL (≈ 53.4 µM); MIC50 (Klebsiella pneumoniae [29]): 0.12 µg/mL (≈ 0.401 µM); MIC90 (Moraxella catarrhalis [30]): 0.06 µg/mL (≈ 0.2 µM); MIC50 (Moraxella catarrhalis [31]): 0.06 µg/mL (≈ 0.2 µM)
C[C@@H](O)[C@H]1C(=O)N2C(C(=O)O)=C(S[C@@H]3CN[C@H](C(=O)N(C)C)C3)[C@H](C)[C@H]12 [MEROPENEM]	0.195 (≈ 0.509 µM)	0.049 (≈ 0.128 µM)	0.049 (≈ 0.128 µM)		0.025 (≈ 0.0652 µM)	0.195 (≈ 0.509 µM)	0.049 (≈ 0.128 µM)	13 (≈ 0.0339 µM)	0.195 (≈ 0.509 µM)	0.025 (≈ 0.0652 µM)	0.025 (≈ 0.0652 µM)		383			52	695	7	2 (≈ 5.22 µM)	16 (≈ 41.7 µM)	MIC50 (Moraxella catarrhalis [36]): 8 ng/mL (≈ 0.0209 µM); MIC90 (Moraxella catarrhalis [36]): 8 ng/mL (≈ 0.0209 µM); MIC50 (Streptococcus pneumoniae [26]): 0.5 µg/mL (≈ 1.3 µM); MIC90 (Streptococcus pneumoniae [26]): 0.5 µg/mL (≈ 1.3 µM); MIC50 (Klebsiella pneumoniae [37]): 0.03 µg/mL (≈ 0.0782 µM); MIC90 (Klebsiella pneumoniae [37]): 0.06 µg/mL (≈ 0.156 µM)
